PubChem BioAssay (NCI)
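Results reflect a 48-hour exposure of cells in 96-well plates to compound at five concentrations. TGI is the concentration that stops growth completely.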

Legend:
Experiment in all cases: NCI tumour cell line growth inhibition, 48 h
[1] = test system: 786-0 renal
[2] = test system: A498 renal
[3] = test system: A549 NSCLC
[4] = test system: ACHN renal
[5] = test system: CAKI-1 renal
[6] = test system: CCRF-CEM leukemia
[7] = test system: COLO 205 colon
[8] = test system: DLD-1 colon
[9] = test system: DMS 114 small cell lung
[10] = test system: DMS 273 small cell lung
[11] = test system: EKVX NSCLC
[12] = test system: HCC-2998 colon
[13] = test system: HCT-116 colon
[14] = test system: HCT-15 colon
[15] = test system: HL-60(TB) leukemia
[16] = test system: HOP-18 NSCLC
[17] = test system: HOP-62 NSCLC
[18] = test system: HT29 colon
[19] = test system: IGROV1 ovarian
[20] = test system: K-562 leukemia
[21] = test system: KM12 colon
[22] = test system: KM20L2 colon
[23] = test system: LOX IMVI melanoma
[24] = test system: LXFL 529 NSCLC
[25] = test system: M14 melanoma
[26] = test system: M19-MEL melanoma
[27] = test system: MALME-3M melanoma
[28] = test system: MOLT-4 leukemia
[29] = test system: NCI-H226 lung
[30] = test system: NCI-H23 lung
[31] = test system: NCI-H460 lung
[32] = test system: NCI-H522 lung
[33] = test system: OVCAR-3 ovarian
[34] = test system: OVCAR-4 ovarian
[35] = test system: OVCAR-5 ovarian
[36] = test system: OVCAR-8 ovarian
[37] = test system: RXF 393 renal
[38] = test system: RXF-631 renal
[39] = test system: SF-268 CNS
[40] = test system: SF-295 CNS
[41] = test system: SF-539 CNS
[42] = test system: SK-MEL-2 melanoma
[43] = test system: SK-MEL-28 melanoma
[44] = test system: SK-MEL-5 melanoma
[45] = test system: SK-OV-3 ovarian
[46] = test system: SN12C renal
[47] = test system: SNB-19 CNS
[48] = test system: SNB-75 CNS
[49] = test system: SNB-78 CNS
[50] = test system: SR leukemia
[51] = test system: SW-620 colon
[52] = test system: TK-10 renal
[53] = test system: U251 CNS
[54] = test system: UACC-257 melanoma
[55] = test system: UACC-62 melanoma
[56] = test system: UO-31 renal
[57] = test system: XF 498 CNS
[58] = test system: HOP-92 NSCLC
[59] = test system: MCF7 breast
[60] = test system: NCI/ADR-RES ovarian
[61] = test system: P388/ADR leukemia
[62] = test system: P388 leukemia
[63] = test system: RPMI-8226 leukemia
[64] = test system: SN12K1 renal

Q: `Cc1ccnc(NS(=O)(=O)c2ccc(NC3=CC(=O)C(=O)c4ccccc43)cc2)n1` was tested. Which TGI [1] did it give?
A: > 100 µM

Q: What about the TGI [2] of the same compound?
A: > 100 µM

Q: What about the TGI [3] of the same compound?
A: > 100 µM

Q: What about the TGI [4] of the same compound?
A: > 100 µM

Q: And the TGI [5]?
A: > 100 µM

Q: And the TGI [6]?
A: > 100 µM

Q: What about the TGI [7] of the same compound?
A: > 100 µM

Q: What about the TGI [8] of the same compound?
A: > 100 µM

Q: And the TGI [9]?
A: > 100 µM

Q: And the TGI [10]?
A: > 100 µM

Q: What about the TGI [11] of the same compound?
A: > 100 µM

Q: What about the TGI [12] of the same compound?
A: > 100 µM

Q: And the TGI [13]?
A: > 100 µM

Q: And the TGI [14]?
A: > 100 µM

Q: What about the TGI [15] of the same compound?
A: > 100 µM

Q: What about the TGI [16] of the same compound?
A: > 100 µM

Q: And the TGI [17]?
A: > 100 µM

Q: What about the TGI [18] of the same compound?
A: > 100 µM

Q: And the TGI [19]?
A: > 100 µM

Q: What about the TGI [20] of the same compound?
A: > 100 µM

Q: What about the TGI [21] of the same compound?
A: > 100 µM

Q: And the TGI [22]?
A: > 100 µM

Q: What about the TGI [23] of the same compound?
A: > 100 µM

Q: And the TGI [24]?
A: > 100 µM

Q: And the TGI [25]?
A: > 100 µM

Q: And the TGI [26]?
A: > 100 µM

Q: And the TGI [27]?
A: > 100 µM

Q: And the TGI [28]?
A: > 100 µM

Q: What about the TGI [29] of the same compound?
A: > 100 µM

Q: And the TGI [30]?
A: > 100 µM

Q: And the TGI [31]?
A: > 100 µM

Q: What about the TGI [32] of the same compound?
A: > 100 µM

Q: And the TGI [33]?
A: > 100 µM

Q: And the TGI [34]?
A: > 100 µM

Q: And the TGI [35]?
A: > 100 µM

Q: And the TGI [36]?
A: > 100 µM

Q: What about the TGI [37] of the same compound?
A: > 100 µM

Q: What about the TGI [38] of the same compound?
A: > 100 µM

Q: And the TGI [39]?
A: > 100 µM

Q: And the TGI [40]?
A: > 100 µM

Q: And the TGI [41]?
A: > 100 µM

Q: And the TGI [42]?
A: > 100 µM

Q: What about the TGI [43] of the same compound?
A: > 100 µM

Q: What about the TGI [44] of the same compound?
A: > 100 µM

Q: And the TGI [45]?
A: > 100 µM

Q: And the TGI [46]?
A: > 100 µM

Q: And the TGI [47]?
A: > 100 µM

Q: And the TGI [48]?
A: > 100 µM

Q: And the TGI [49]?
A: > 100 µM

Q: And the TGI [50]?
A: > 100 µM

Q: And the TGI [51]?
A: > 100 µM

Q: And the TGI [52]?
A: > 100 µM

Q: And the TGI [53]?
A: > 100 µM

Q: What about the TGI [54] of the same compound?
A: > 100 µM

Q: What about the TGI [55] of the same compound?
A: > 100 µM

Q: What about the TGI [56] of the same compound?
A: > 100 µM

Q: And the TGI [57]?
A: > 100 µM

Q: For `O=C1c2cccc3cc4ccccc4c(c23)C(=O)N1CCNCCNCCNCCN1C(=O)c2cccc3cc4ccccc4c(c23)C1=O`, which TGI [2] is on record?
A: 0.566 µM

Q: What about the TGI [3] of the same compound?
A: 1 µM

Q: And the TGI [5]?
A: 0.344 µM

Q: And the TGI [6]?
A: 0.637 µM

Q: What about the TGI [7] of the same compound?
A: 0.184 µM

Q: And the TGI [8]?
A: 0.344 µM

Q: And the TGI [9]?
A: 0.177 µM

Q: And the TGI [10]?
A: 0.159 µM

Q: What about the TGI [11] of the same compound?
A: 0.666 µM

Q: And the TGI [12]?
A: 0.0829 µM

Q: And the TGI [13]?
A: 1.11 µM

Q: And the TGI [14]?
A: 0.474 µM

Q: And the TGI [15]?
A: 0.212 µM

Q: What about the TGI [16] of the same compound?
A: 0.398 µM

Q: And the TGI [58]?
A: 0.254 µM

Q: What about the TGI [18] of the same compound?
A: 0.552 µM

Q: What about the TGI [19] of the same compound?
A: 1.22 µM

Q: And the TGI [22]?
A: 0.597 µM

Q: And the TGI [23]?
A: 0.155 µM

Q: And the TGI [26]?
A: 0.161 µM

Q: What about the TGI [27] of the same compound?
A: 0.78 µM

Q: And the TGI [59]?
A: 1.87 µM

Q: What about the TGI [28] of the same compound?
A: 0.212 µM

Q: And the TGI [29]?
A: > 100 µM

Q: What about the TGI [30] of the same compound?
A: 0.159 µM

Q: What about the TGI [31] of the same compound?
A: 0.0233 µM

Q: And the TGI [60]?
A: 1.53 µM

Q: And the TGI [33]?
A: 0.546 µM

Q: What about the TGI [34] of the same compound?
A: 0.314 µM

Q: What about the TGI [35] of the same compound?
A: 0.672 µM

Q: What about the TGI [36] of the same compound?
A: 0.735 µM

Q: And the TGI [61]?
A: 0.47 µM

Q: What about the TGI [37] of the same compound?
A: 0.0435 µM

Q: And the TGI [39]?
A: 0.197 µM

Q: What about the TGI [40] of the same compound?
A: 0.281 µM

Q: What about the TGI [41] of the same compound?
A: 0.288 µM

Q: And the TGI [42]?
A: 0.252 µM

Q: And the TGI [43]?
A: 0.324 µM

Q: And the TGI [44]?
A: 0.578 µM

Q: What about the TGI [46] of the same compound?
A: 1.41 µM

Q: What about the TGI [47] of the same compound?
A: 0.927 µM

Q: And the TGI [48]?
A: 0.106 µM

Q: And the TGI [49]?
A: 0.385 µM

Q: What about the TGI [51] of the same compound?
A: 0.308 µM

Q: And the TGI [53]?
A: 0.539 µM

Q: What about the TGI [54] of the same compound?
A: 0.767 µM

Q: And the TGI [55]?
A: 0.156 µM

Q: And the TGI [56]?
A: 0.36 µM

Q: What about the TGI [57] of the same compound?
A: 0.178 µM

Q: Which results are given for `Nc1nc(N)nc(-c2ccccc2NS(=O)(=O)c2ccc([N+](=O)[O-])cc2)n1`?
A: TGI [2]: > 100 µM; TGI [3]: > 100 µM; TGI [5]: > 34.6 µM; TGI [6]: > 100 µM; TGI [7]: > 31.6 µM; TGI [8]: > 100 µM; TGI [9]: > 100 µM; TGI [10]: > 100 µM; TGI [11]: > 100 µM; TGI [12]: > 100 µM; TGI [13]: > 100 µM; TGI [14]: > 100 µM; TGI [15]: 61.5 µM; TGI [16]: > 100 µM; TGI [17]: > 100 µM; TGI [58]: > 100 µM; TGI [18]: > 100 µM; TGI [19]: > 100 µM; TGI [21]: > 100 µM; TGI [22]: > 100 µM; TGI [23]: > 100 µM; TGI [26]: > 100 µM; TGI [27]: > 100 µM; TGI [59]: > 100 µM; TGI [28]: > 100 µM; TGI [29]: > 100 µM; TGI [30]: > 100 µM; TGI [31]: > 100 µM; TGI [32]: > 100 µM; TGI [60]: > 100 µM; TGI [33]: > 100 µM; TGI [34]: > 100 µM; TGI [35]: > 100 µM; TGI [36]: > 100 µM; TGI [62]: > 100 µM; TGI [61]: > 100 µM; TGI [63]: > 100 µM; TGI [37]: > 100 µM; TGI [39]: > 100 µM; TGI [40]: > 100 µM; TGI [41]: > 100 µM; TGI [42]: > 100 µM; TGI [43]: > 100 µM; TGI [44]: > 84.8 µM; TGI [45]: > 100 µM; TGI [46]: > 100 µM; TGI [64]: > 100 µM; TGI [47]: > 100 µM; TGI [48]: > 90.6 µM; TGI [49]: > 100 µM; TGI [51]: > 100 µM; TGI [53]: > 100 µM; TGI [54]: > 100 µM; TGI [55]: > 100 µM; TGI [56]: > 100 µM; TGI [57]: 63.5 µM
